Measurements as given in PubChem BioAssay (NCI).
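Exposure lasted 48 hours, with cells grown in 96-well plates and compounds tested at five concentrations. At the GI50, growth is halved. Definition used: TGI = concentration required for complete inhibition of growth.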

Experiments:
Assay in all cases: NCI anticancer screen, dose series, 48 h
[1] = tested on: CAKI-1 renal
[2] = tested on: NCI-H226 lung
[3] = tested on: HCC-2998 colon
[4] = tested on: 786-0 renal
[5] = tested on: K-562 leukemia
[6] = tested on: SN12C renal
[7] = tested on: UO-31 renal
[8] = tested on: SK-MEL-5 melanoma
[9] = tested on: SW-620 colon
[10] = tested on: LOX IMVI melanoma
[11] = tested on: A498 renal
[12] = tested on: PC-3 prostate
[13] = tested on: HT29 colon
[14] = tested on: KM12 colon
[15] = tested on: MDA-MB-435
[16] = tested on: NCI/ADR-RES ovarian
[17] = tested on: OVCAR-3 ovarian
[18] = tested on: BT-549 breast
[19] = tested on: T-47D breast
[20] = tested on: UACC-62 melanoma
[21] = tested on: SNB-75 CNS
[22] = tested on: HOP-62 NSCLC
[23] = tested on: HCT-116 colon
[24] = tested on: SK-MEL-2 melanoma
[25] = tested on: SF-295 CNS
[26] = tested on: NCI-H23 lung
[27] = tested on: UACC-257 melanoma
[28] = tested on: ACHN renal
[29] = tested on: MALME-3M melanoma
[30] = tested on: M14 melanoma
[31] = tested on: MOLT-4 leukemia
[32] = tested on: HOP-92 NSCLC
[33] = tested on: IGROV1 ovarian
[34] = tested on: NCI-H460 lung
[35] = tested on: SNB-19 CNS
[36] = tested on: DU-145 prostate
[37] = tested on: RPMI-8226 leukemia
[38] = tested on: HL-60(TB) leukemia
[39] = tested on: SR leukemia
[40] = tested on: SF-268 CNS
[41] = tested on: SF-539 CNS
[42] = tested on: HCT-15 colon
[43] = tested on: TK-10 renal
[44] = tested on: SK-MEL-28 melanoma
[45] = tested on: NCI-H522 lung
[46] = tested on: OVCAR-5 ovarian
[47] = tested on: COLO 205 colon
[48] = tested on: EKVX NSCLC
[49] = tested on: MDA-MB-231 breast
[50] = tested on: SK-OV-3 ovarian
[51] = tested on: A549 NSCLC
[52] = tested on: OVCAR-8 ovarian
[53] = tested on: HS 578T breast
[54] = tested on: CCRF-CEM leukemia
[55] = tested on: RXF 393 renal
[56] = tested on: U251 CNS
[57] = tested on: MCF7 breast
[58] = tested on: OVCAR-4 ovarian
[59] = tested on: MDA-N

CC(=O)Nc1ccc(C(=O)COc2cccc(/C=C3\CCc4ccccc4C3=O)c2)cc1
GI50 [1]: 21 µM | TGI [1]: 77.1 µM | GI50 [2]: 16.3 µM | TGI [2]: > 100 µM | GI50 [3]: 17.7 µM | TGI [3]: 32.2 µM | GI50 [4]: 26.5 µM | TGI [4]: > 100 µM | GI50 [5]: 2.8 µM | TGI [5]: 12.7 µM | GI50 [6]: 27.6 µM | TGI [6]: > 100 µM | GI50 [7]: 15.5 µM | TGI [7]: 64 µM | GI50 [8]: 2.9 µM | TGI [8]: 11 µM | GI50 [9]: 3.65 µM | TGI [9]: 15 µM | GI50 [10]: 6.59 µM | TGI [10]: 25.4 µM | GI50 [11]: 53.6 µM | TGI [11]: > 100 µM | GI50 [12]: 10.1 µM | TGI [12]: 47.2 µM | GI50 [13]: 18.7 µM | TGI [13]: > 100 µM | GI50 [14]: 4.92 µM | TGI [14]: 18.1 µM | GI50 [15]: 5.58 µM | TGI [15]: 30 µM | GI50 [16]: 10.5 µM | TGI [16]: 65.9 µM | GI50 [17]: 17.4 µM | TGI [17]: 39.1 µM | GI50 [18]: 17.6 µM | TGI [18]: 54.2 µM | GI50 [19]: 11 µM | TGI [19]: 57.2 µM | GI50 [20]: 12.5 µM | TGI [20]: 32.7 µM | GI50 [21]: 13 µM | TGI [21]: 64.7 µM | GI50 [22]: 24 µM | TGI [22]: 60.3 µM | GI50 [23]: 4.09 µM | TGI [23]: 17.1 µM | GI50 [24]: 14.8 µM | TGI [24]: 65.8 µM | GI50 [25]: 11.2 µM | TGI [25]: 39.6 µM | GI50 [26]: 14.4 µM | TGI [26]: 43.4 µM | GI50 [27]: 15.7 µM | TGI [27]: 39 µM | GI50 [28]: 21.9 µM | TGI [28]: 78.4 µM | GI50 [29]: 15.8 µM | TGI [29]: 39.5 µM | GI50 [30]: 14.4 µM | TGI [30]: 34 µM | GI50 [31]: 4.3 µM | TGI [31]: 20.9 µM | GI50 [32]: 15.1 µM | TGI [32]: 60.9 µM | GI50 [33]: 21.1 µM | TGI [33]: 99.2 µM | GI50 [34]: 16.1 µM | TGI [34]: 37.1 µM | GI50 [35]: 17.4 µM | TGI [35]: 51.7 µM | GI50 [36]: 19.2 µM | TGI [36]: 53 µM | GI50 [37]: 1.82 µM | TGI [37]: 4.97 µM | GI50 [38]: 4.4 µM | TGI [38]: 22.7 µM | GI50 [39]: 0.0802 µM | TGI [39]: 16.7 µM | GI50 [40]: 19 µM | TGI [40]: 52.4 µM | GI50 [41]: 19.2 µM | TGI [41]: 40.2 µM | GI50 [42]: 11.2 µM | TGI [42]: 32 µM | GI50 [43]: 28.2 µM | TGI [43]: > 100 µM | GI50 [44]: 20.3 µM | TGI [44]: 37.8 µM | GI50 [45]: 6.55 µM | TGI [45]: 32.8 µM | GI50 [46]: 19.6 µM | TGI [46]: 36.3 µM | GI50 [47]: 17.2 µM | TGI [47]: 34.5 µM | GI50 [48]: 14.3 µM | TGI [48]: 68.7 µM | GI50 [49]: 18.7 µM | TGI [49]: 85.9 µM | GI50 [50]: 30.1 µM | TGI [50]: > 100 µM | GI50 [51]: 38.1 µM | TGI [51]: > 100 µM | GI50 [52]: 23.6 µM | TGI [52]: > 100 µM | GI50 [53]: 32.6 µM | TGI [53]: > 100 µM | GI50 [54]: 2.31 µM | TGI [54]: 6.09 µM | GI50 [55]: 24.8 µM | TGI [55]: 57.8 µM | GI50 [56]: 12.4 µM | TGI [56]: 27.8 µM | GI50 [57]: 2.9 µM | TGI [57]: 19 µM | GI50 [58]: 1.01 µM | TGI [58]: 26.1 µM

Oc1[nH]c2ccccc2c1N=Nc1nc(-c2ccccc2)cs1
TGI [1]: 39.8 µM | TGI [2]: > 100 µM | TGI [3]: > 100 µM | TGI [4]: > 100 µM | TGI [6]: > 100 µM | TGI [7]: > 100 µM | TGI [8]: > 100 µM | TGI [9]: > 100 µM | TGI [10]: > 100 µM | TGI [12]: 51.8 µM | TGI [13]: > 100 µM | TGI [14]: > 100 µM | TGI [15]: > 100 µM | TGI [16]: 83 µM | TGI [17]: > 100 µM | TGI [19]: > 100 µM | TGI [21]: 41.3 µM | TGI [22]: 66.4 µM | TGI [23]: > 100 µM | TGI [24]: > 100 µM | TGI [25]: 63.1 µM | TGI [26]: > 100 µM | TGI [27]: > 100 µM | TGI [28]: > 100 µM | TGI [30]: > 100 µM | TGI [31]: > 100 µM | TGI [32]: > 100 µM | TGI [33]: > 100 µM | TGI [34]: 46.6 µM | TGI [35]: > 100 µM | TGI [36]: > 100 µM | TGI [59]: > 100 µM | TGI [41]: 28.9 µM | TGI [42]: > 100 µM | TGI [43]: > 100 µM | TGI [44]: > 100 µM | TGI [46]: > 100 µM | TGI [47]: > 100 µM | TGI [48]: 76.7 µM | TGI [49]: 99.7 µM | TGI [50]: > 100 µM | TGI [51]: > 100 µM | TGI [52]: > 100 µM | TGI [56]: > 100 µM | TGI [57]: > 100 µM | TGI [58]: > 100 µM
